The text below walks through data of EP0140270A2 (priority 1983, dated 1985).

Type in all cases: in vivo
The test system of experiment [1] is Pyricularia oryzae. The conditions noted are these: systemic; 40 ml preparation poured on soil of young rice plants; inoculated 7 days after treatment; evaluated 4 days after inoculation; compared with prior art (Zinkethylen-1,2-bis-dithiocarbamat).
The test system of experiment [2] is Pyricularia oryzae. The conditions noted are these: protective; young rice plants sprayed to dripping wet, then inoculated; evaluated 4 days after inoculation; compared with prior art (Zinkethylen-1,2-bis-dithiocarbamat).
Another experiment concerns Phytophthora infestans. To be noted: curative; young tomato plants inoculated, sprayed after 7 hours incubation; evaluated 3 days after inoculation; compared with prior art (Zinkethylen-1,2-bis-dithiocarbamat).

Like-named read-outs stand apart in the source and are kept apart here.

On to `C#CC(C)(C)C(C(=O)OC)C(=O)OC` [Beispiel 1, 3,3-Dimethyl-2-methoxycarbcnyL-pent-4-insäuremethylester], for which the “Wirksamkeit (Krankheitsbefall)” value in the experiment on Pyricularia oryzae [1] is “deutliche Überlegenheit in der Wirksamkeit gegenüber dem Stand der Technik”.

As to `C#CC(C)(C)C(C(=O)O)C(=O)OCC` (centres unmarked) [Beispiel 2, 3,3-Dimethyl-2-ethoxycarbonyl-pent-4-insäure], the “Wirksamkeit (Krankheitsbefall)” value with Pyricularia oryzae [1] and in the experiment on Pyricularia oryzae [2] was “deutliche Überlegenheit in der Wirksamkeit gegenüber dem Stand der Technik” each time.

For `C#CC(C)(C)C(C(N)=O)C(=O)OCC` (centres unmarked) [Beispiel 3, 3,3-Dimethyl-2-etrcry-carbonyl-pent-4-insaureamid], the “Wirksamkeit (Krankheitsbefall)” value with Pyricularia oryzae [2] was “deutliche Überlegenheit in der Wirksamkeit gegenüber dem Stand der Technik”. Also, the Wirksamkeit result with Phytophthora infestans is “deutliche Überlegenheit in der Wirksamkeit gegenüber dem Stand der Technik”.

Regarding `CCOC(=O)CC(C)(C)C#CC(=O)OCCI` [Beispiel 4, 3,3-DimethyL-5-iodethoxycarbonyl-pent-4-insäureethylester], the “Wirksamkeit (Krankheitsbefall)” value in the experiment on Pyricularia oryzae [1] and in the experiment on Pyricularia oryzae [2] was “deutliche Überlegenheit in der Wirksamkeit gegenüber dem Stand der Technik” each time.

`C#CC(C)(C)C(C(=O)OCC)C(=O)OCC` [Beispiel 20, 3,3-Dimethyl-2-ethoxycarbonyl-pent-4-insäureethylester]: the “Wirksamkeit (Krankheitsbefall)” value in the experiment on Pyricularia oryzae [1] was “deutliche Überlegenheit in der Wirksamkeit gegenüber dem Stand der Technik”.
